From ChEMBL document CHEMBL5512629, “Insight into small-molecule inhibitors targeting extracellular nucleotide pyrophosphatase/phosphodiesterase1 for potential multiple human diseases” (Eur J Med Chem, 2024)

Experiments:
[1] = target: T1, Ectonucleotide pyrophosphatase/phosphodiesterase family member 1 (Homo sapiens, UniProt P22413); experiment: Binding affinity to ENPP1 (unknown origin) assessed as inhibition constant
T1 sequence (P22413 whole entry): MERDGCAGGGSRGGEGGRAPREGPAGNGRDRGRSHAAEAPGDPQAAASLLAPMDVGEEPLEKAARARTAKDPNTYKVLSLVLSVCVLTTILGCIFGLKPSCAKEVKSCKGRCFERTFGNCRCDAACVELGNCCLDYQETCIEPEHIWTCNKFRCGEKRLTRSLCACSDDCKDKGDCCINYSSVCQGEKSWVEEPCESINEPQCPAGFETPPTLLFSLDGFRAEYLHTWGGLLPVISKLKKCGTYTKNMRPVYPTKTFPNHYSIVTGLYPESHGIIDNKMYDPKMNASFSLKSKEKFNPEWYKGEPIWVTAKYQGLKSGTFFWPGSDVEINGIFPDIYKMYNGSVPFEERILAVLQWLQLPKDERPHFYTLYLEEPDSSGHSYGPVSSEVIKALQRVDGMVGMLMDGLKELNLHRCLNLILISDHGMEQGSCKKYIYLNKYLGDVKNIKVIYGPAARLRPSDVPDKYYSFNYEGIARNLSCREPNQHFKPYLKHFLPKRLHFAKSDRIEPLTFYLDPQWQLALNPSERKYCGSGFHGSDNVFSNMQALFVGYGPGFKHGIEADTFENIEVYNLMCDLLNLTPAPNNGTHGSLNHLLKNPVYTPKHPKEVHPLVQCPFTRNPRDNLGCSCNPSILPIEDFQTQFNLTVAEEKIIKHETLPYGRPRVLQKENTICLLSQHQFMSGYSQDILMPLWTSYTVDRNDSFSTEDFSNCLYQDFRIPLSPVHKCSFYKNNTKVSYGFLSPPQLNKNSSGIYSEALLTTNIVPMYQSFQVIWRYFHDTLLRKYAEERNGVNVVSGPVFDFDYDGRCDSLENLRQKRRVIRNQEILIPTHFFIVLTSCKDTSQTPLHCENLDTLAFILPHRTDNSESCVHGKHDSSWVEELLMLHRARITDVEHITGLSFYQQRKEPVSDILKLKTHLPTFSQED

[2] = target: T1, Ectonucleotide pyrophosphatase/phosphodiesterase family member 1; experiment: Inhibition of human ENPP1
[3] = Oral bioavailability in mouse; type: ADME, organism-based; settings: in vivo
[4] = target: T1, Ectonucleotide pyrophosphatase/phosphodiesterase family member 1; experiment: Inhibition of ENPP1 (unknown origin)
[5] = target: T1, Ectonucleotide pyrophosphatase/phosphodiesterase family member 1; experiment: Binding affinity to human ENPP1 assessed as inhibition constant

SMILES: Nc1ncnc2c1ncn2[C@@H]1O[C@H](COP(=O)(O)CP(=O)(O)OP(O)(O)=S)[C@@H](O)[C@H]1O
- Ki [1]: 20 µM

SMILES: COc1cc2cc(-n3cc(C)c4ccccc43)n3c4ccccc4c(C)c3c2cc1OC
- IC50 [2]: 0.36 µM

SMILES: Cn1nc(Cc2ccc(NS(N)(=O)=O)cc2)c2ccccc2c1=O
- bioavailability [3]: 65%

SMILES: COc1ccc(NC(=O)CSc2nc3c(C)c(C#N)ncc3[nH]2)cc1O
- IC50 [4]: 2.06 µM

SMILES: Cc1nc2ncnn2c(N(C)C)c1Cc1cccc(N)c1
- IC50 [4]: 260 µM

SMILES: COc1cccc2c(N3CCC(CCP(=O)(O)O)CC3)ncnc12
- Ki [5]: < 0.002 µM

SMILES: O=C(/C=C/c1ccc(O)c(O)c1)O[C@H](Cc1ccc(O)c(O)c1)C(=O)O [ROSMARINIC ACID]
- Ki [5]: 0.0269 µM
